This note sets out measurements from publication PMC8552062, “Contributions of UDP-Glucuronosyltransferases to Human Hepatic and Intestinal Metabolism of Ticagrelor and Inhibition of UGTs and Cytochrome P450 Enzymes by Ticagrelor and its Glucuronidated Metabolite” (Frontiers in Pharmacology, 2021).

Where “and” joins values, the source holds several entries; their conditions need not be identical. Identical values can stand only once.

Type in all cases: in vitro ADME
One data set has as its target T1, CYP2C9 (Homo sapiens, UniProt P11712).
T1 construct: co-incubation ticagrelor-O-Glu with selective P450 probe substrates in HLM; tissue XenoTech LLC; host or cells: pooled human liver microsomes
As to the kind of experiment: CYP2C9 inhibition in HLM (diclofenac 4′-hydroxylase). The method, then:
(§1) The potential inhibitory effects of ticagrelor-O-Glu on the activities of major CYPs, i.e., CYP2B6, CYP2C8, CYP2C9, CYP2C19, CYP2D6, and CYP3A4, were evaluated by co-incubation ticagrelor-O-Glu with selective P450 probe substrates in HLM. Each incubation mixture containing 0.2 mg/ml HLM, ticagrelor-O-Glu and respective substrate (the final substrate concentrations are close to or less than the Km values: 150 μM bupropion, 1.26 μM amodiaquine, 10 μM diclofenac, 20 μM mephenytoin, 20 μM dextromethorphan and 80 μM testosterone (in house data)) in potassium phosphate buffer (100 mM, pH 7.4) was pre-incubated at 37°C for 5 min. Then, NADPH (10 mM) was added to initiate the reaction. The final volume of the incubation mixture was 100 μl. After incubation at 37°C for specific time points, the reaction was terminated by the addition of 200 μl of ice-cold methanol solution with internal standards (diazepam and furafylline). Preliminary screening experiments with selected concentrations of ticagrelor-O-Glu (0, 1, 10, or 100 μM of the final concentration) were carried out to determine the inhibition potency. For those that produced approximately 50% inhibition of CYPs enzyme activities at a ticagrelor-O-Glu concentration between 1 and 100 μM, IC50 was further determined with various concentrations of ticagrelor-O-Glu (0, 1, 5, 10, 20, 50, and 100 μM). All the experiments were performed in triplicates. The supernatant was obtained after centrifugation at 14,000 rpm for 10 min and injected into LC-MS/MS for the analysis of the respective metabolites. The formation of respective metabolites was determined to reflect P450 isoform activities. The metabolites quantified for CYP2B6, CYP2C8, CYP2C9, CYP2C19, CYP2D6, and CYP3A4 were hydroxy bupropion, N-Desethyl amodiaquine, 4′-hydroxylation diclofenac, S-4-hydroxy mephenytoin, dextrorphan and 6β-hydroxy testosterone, respectively.
(§2) The percent inhibition relative to the control was calculated to indicate the UGTs or CYPs inhibition. […]

The next data set concerns the target T2, CYP3A4 (Homo sapiens, UniProt P08684).
T2 construct: co-incubation ticagrelor-O-Glu with selective P450 probe substrates in HLM; tissue XenoTech LLC; host or cells: pooled human liver microsomes
The data set can be described thus: CYP3A4 inhibition in HLM (testosterone 6β-hydroxylase). Conditions: human liver microsomes, pH 7.4, probe testosterone (80 μM), 6β-hydroxy testosterone formation. The method, then: as §1, with “Preliminary screening experiments with selected concentrations of ticagrelor-O-Glu (0, 1, 10, or 100 μM of the final concentration) were carried out to determine the inhibition potency. For those that produced approximately 50% inhibition of CYPs enzyme activities at a ticagrelor-O-Glu concentration between 1 and 100 μM, IC50 was further determined with various concentrations of ticagrelor-O-Glu (0, 1, 5, 10, 20, 50, and 100 μM). All the experiments were performed in triplicates. The supernatant was obtained after centrifugation at 14,000 rpm for 10 min and injected into LC-MS/MS for the analysis of the respective metabolites.” left out
as §2
On the technique in general: Liver microsomes are vesicles of endoplasmic reticulum, rich in cytochrome P450 enzymes.

In data set [1] the target is T3, recombinant human UGT1A10 (Homo sapiens, UniProt Q9HAW8).
T3 construct: purchased BD Gentest; host or cells: baculovirus-infected insect cells
T3 sequence (Q9HAW8 26-530): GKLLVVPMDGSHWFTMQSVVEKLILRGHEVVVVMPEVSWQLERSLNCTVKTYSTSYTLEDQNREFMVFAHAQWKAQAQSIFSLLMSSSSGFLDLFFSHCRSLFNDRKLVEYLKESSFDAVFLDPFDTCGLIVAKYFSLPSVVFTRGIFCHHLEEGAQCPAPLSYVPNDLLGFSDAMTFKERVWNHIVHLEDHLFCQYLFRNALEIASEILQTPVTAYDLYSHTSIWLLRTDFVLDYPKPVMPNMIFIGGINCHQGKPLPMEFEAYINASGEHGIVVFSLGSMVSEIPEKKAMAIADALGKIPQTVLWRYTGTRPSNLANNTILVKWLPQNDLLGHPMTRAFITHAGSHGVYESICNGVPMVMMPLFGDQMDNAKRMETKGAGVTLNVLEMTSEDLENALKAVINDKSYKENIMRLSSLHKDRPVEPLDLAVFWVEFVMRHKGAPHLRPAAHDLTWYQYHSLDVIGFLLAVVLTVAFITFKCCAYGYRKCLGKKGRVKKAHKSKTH
As to the kind of experiment: Ticagrelor glucuronidation screen, recombinant human UGT1A10. Conditions: 10 μM ticagrelor. As to the method: Ticagrelor glucuronidation was investigated in an in vitro incubation system by using HLM, HIM, and recombinant human UGTs. The incubation system consisted of enzyme sources (HLM, HIM, or human recombinant UGTs), various concentrations of ticagrelor (dissolved in 50% methanol, 1% v/v, 1, 2, 5, 10, 20, 50, 100, 200, 500 μM of final concentration), alamethicin (50 μg/mg protein), 5 mM MgCl2, 100 mM tris-HCL buffer (pH 7.4), and 5 mM UDPGA in a total volume of 100 μl. Alamethicin is a pore-forming polypeptide used to activate UGTs in HLM and HIM ([Fisher et al., 2000]). Preliminary studies were conducted to determine the optimal protein concentrations and incubation times. Linear conditions of ticagrelor-O-Glu formation from ticagrelor, i.e., HLM, 0.2 mg of protein/ml and 60 min, HIM, 0.2 mg of protein/ml and 60 min, and recombinant human UGTs, 0.2 mg of protein/ml and 60 min were selected. The incubation mixture without UDPGA was placed on ice for 15 min to activate UGT by alamethicin. After pre-incubation for 5 min at 37°C, the reactions were started by the addition of UDPGA. After another 60 min of incubation at 37°C, the reaction was terminated by adding 100 μl of acetonitrile containing internal standard (diazepam). The mixture vortexed for 2 min and then centrifuged at 14,000 rpm for 10 min at 4°C. […]

For data set [2], the system named is human liver microsomes (HLM). The data set can be described thus: Ticagrelor glucuronidation kinetics in pooled HLM. As to the method:
Ticagrelor glucuronidation was investigated in an in vitro incubation system by using HLM, HIM, and recombinant human UGTs. The incubation system consisted of enzyme sources (HLM, HIM, or human recombinant UGTs), various concentrations of ticagrelor (dissolved in 50% methanol, 1% v/v, 1, 2, 5, 10, 20, 50, 100, 200, 500 μM of final concentration), alamethicin (50 μg/mg protein), 5 mM MgCl2, 100 mM tris-HCL buffer (pH 7.4), and 5 mM UDPGA in a total volume of 100 μl. Alamethicin is a pore-forming polypeptide used to activate UGTs in HLM and HIM ([Fisher et al., 2000]). Preliminary studies were conducted to determine the optimal protein concentrations and incubation times. Linear conditions of ticagrelor-O-Glu formation from ticagrelor, i.e., HLM, 0.2 mg of protein/ml and 60 min, HIM, 0.2 mg of protein/ml and 60 min, and recombinant human UGTs, 0.2 mg of protein/ml and 60 min were selected. The incubation mixture without UDPGA was placed on ice for 15 min to activate UGT by alamethicin. After pre-incubation for 5 min at 37°C, the reactions were started by the addition of UDPGA. After another 60 min of incubation at 37°C, the reaction was terminated by adding 100 μl of acetonitrile containing internal standard (diazepam). The mixture vortexed for 2 min and then centrifuged at 14,000 rpm for 10 min at 4°C. The resulting supernatant was injected into a liquid chromatography tandem mass spectrometry (LC-MS/MS, Applied Biosystems/MDS Sciex, Foster City, CA) system for the detection of ticagrelor-O-Glu.
Kinetic analyses were performed using the mean values of triplicate determinations with either pooled HLM, HIM, or recombinant human UGTs. All data were analyzed by nonlinear regression analysis using the GraphPad Prism 6 (GraphPad Software Inc., CA, United States). Michaelis-Menten kinetics (Eq. 1) or substrate inhibition kinetics (Eq. 2) ([Houston and Kenworthy, 2000]) were tested to determine the optimal model for describing the data. […] Intrinsic clearance (CLint) was calculated by dividing Vmax by Km.

T1 sequence (P11712 whole entry): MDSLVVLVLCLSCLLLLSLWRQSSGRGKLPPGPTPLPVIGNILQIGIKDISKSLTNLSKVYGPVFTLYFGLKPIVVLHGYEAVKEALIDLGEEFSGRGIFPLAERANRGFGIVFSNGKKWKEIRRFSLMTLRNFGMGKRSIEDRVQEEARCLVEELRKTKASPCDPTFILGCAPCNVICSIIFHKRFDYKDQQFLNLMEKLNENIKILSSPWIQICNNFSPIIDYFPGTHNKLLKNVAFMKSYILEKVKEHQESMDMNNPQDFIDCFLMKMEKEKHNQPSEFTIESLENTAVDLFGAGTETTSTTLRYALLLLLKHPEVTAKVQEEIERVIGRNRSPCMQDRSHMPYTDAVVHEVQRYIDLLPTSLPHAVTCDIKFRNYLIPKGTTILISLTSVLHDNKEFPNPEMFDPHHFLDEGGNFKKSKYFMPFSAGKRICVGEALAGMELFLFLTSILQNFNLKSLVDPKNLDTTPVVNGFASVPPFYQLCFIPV
T2 sequence (P08684 whole entry): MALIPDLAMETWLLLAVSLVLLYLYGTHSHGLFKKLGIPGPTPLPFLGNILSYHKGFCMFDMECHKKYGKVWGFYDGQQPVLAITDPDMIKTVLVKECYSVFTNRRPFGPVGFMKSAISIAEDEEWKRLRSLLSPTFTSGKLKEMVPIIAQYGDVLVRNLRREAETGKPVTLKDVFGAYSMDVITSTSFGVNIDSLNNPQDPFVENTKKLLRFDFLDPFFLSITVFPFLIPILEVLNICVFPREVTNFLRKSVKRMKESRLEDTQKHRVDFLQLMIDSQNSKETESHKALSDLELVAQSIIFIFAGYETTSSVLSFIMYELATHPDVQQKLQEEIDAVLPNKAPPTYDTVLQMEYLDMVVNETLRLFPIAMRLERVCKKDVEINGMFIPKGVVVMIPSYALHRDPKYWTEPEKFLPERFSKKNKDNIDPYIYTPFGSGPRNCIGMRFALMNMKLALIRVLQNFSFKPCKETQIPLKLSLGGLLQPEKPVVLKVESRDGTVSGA

On to `CCCSc1nc(N[C@@H]2C[C@H]2c2ccc(F)c(F)c2)c2nnn([C@@H]3C[C@H](OCCO[C@@H]4O[C@H](C(=O)O)[C@@H](O)[C@H](O)[C@H]4O)[C@@H](O)[C@H]3O)c2n1` [Ticagrelor-O-Glu, ticagrelor-O-glucuronide], for which the IC50 against CYP2C9 (CYP2C9, diclofenac 4′-hydroxylase, HLM 0.2 mg/ml) was 20 µM; at CYP3A4 (CYP3A4, testosterone 6β-hydroxylase, HLM 0.2 mg/ml), greater than 100 µM. Further, the inhibition at 10 μM on CYP2C9 (human, human liver microsomes, pH 7.4, probe diclofenac (10 μM), 4′-hydroxylation diclofenac formation, HLM, 10 μM ticagrelor-O-Glu, read-out: inhibition of CYP2C9 enzyme activity) was 44%. Also, the inhibition at 100 µM worked out at 73.5% on CYP2C9 (human, human liver microsomes, pH 7.4, probe diclofenac (10 μM), 4′-hydroxylation diclofenac formation, HLM, 100 μM ticagrelor-O-Glu, read-out: inhibition of CYP2C9 enzyme activity) and 57.1% on CYP3A4 (HLM, 100 μM ticagrelor-O-Glu, read-out: inhibition of CYP3A4 enzyme activity).
On to `CCCSc1nc(N[C@@H]2C[C@H]2c2ccc(F)c(F)c2)c2nnn([C@@H]3C[C@H](OCCO)[C@@H](O)[C@H]3O)c2n1` [Ticagrelor], for which the “glucuronidation activity for ticagrelor” value in data set [1] is listed as “no glucuronidation activities”. Moreover, in data set [2] (pooled HLM), the Ksi was 1,343 μM and 1,343.0 μM; the Vmax worked out at 8.03 pmol·min^−1·mg protein^−1. In addition, in data set [2] (pooled HLM 0.2 mg protein/ml, 60 min, substrate inhibition kinetics), the Km stood at 5.65 µM.

As usually defined, the IC50 is the concentration at which inhibition is half-maximal. Higher therefore signals weaker potency in that assay. The inhibition is the drop in the measured response relative to a control, in per cent. A word on the Km: it is the concentration of substrate that gives half-maximal velocity.
